The values that follow come from patent US20240002332A1, “Small Molecule Inhibitors of SARS-CoV-2 Infections” (priority 2020, published 2024).

A short description of data set [1]: in vivo. Conditions: C57BL/6, mouse, po, C57BL/6 mice; for AUC(0-inf): AUCInf; for AUC(0-inf) / AUC(0-t) / Cmax / Tmax: Compound P3 in plasma; for AUC(0-t): AUClast; for half-life: t1/2, Compound P3 in plasma.
Data set [2] relates to SARS-CoV-2. Conditions: EIDD-2801 250 mpk BID; Compound P3 60 mpk BID.
Source text: EIDD-2801 (molnupiravir) was chosen as the positive control at 250 mpk BID oral dose.
Where [3] appears, read: 50 mg/kg, PO 50 mg/kg (PO_A), Mean n = 3.
[4] abbreviates: 50 mg/kg, PO 50 mg/kg (PO_A), individual mice.
The mark [5] stands for this setting: 100 mg/kg, PO 100 mg/kg (PO_B), Mean n = 3.
[6] abbreviates: 100 mg/kg, PO 100 mg/kg (PO_B), individual mice.

Structures are written as SMILES.

For `O=C(Nc1ccc([N+](=O)[O-])cc1Cl)c1cc(Cl)ccc1OC(=O)N1CCNCC1` [Compound P3, 4-chloro-2-((2-chloro-4-nitrophenyl)carbamoyl)phenyl piperazine-1-carboxylate], in data set [1] (setting [3]), the area under the curve AUC(0-inf) (commonly the area under the concentration-time curve extrapolated to infinity) was found to be 88700 ng·h/mL; the AUC(0-t) (in general, exposure summed from dosing to a finite time, without extrapolation to infinity) was determined as 9730 ng·h/mL; the Cmax – broadly, the highest concentration seen after dosing – was determined as 1460 ng/mL; the half-life (in general, the time needed for the level to fall by half in the phase considered) is 248 min. For the same molecule, the Tmax (commonly the time from dosing to the highest level) in data set [1] (setting [3]) worked out at 2 h. In data set [1] (setting [4]), this molecule showed an AUC(0-t) of 6360 ng·h/mL, a Cmax of 1140 ng/mL and a half-life of 275 min. For the same molecule, in data set [1] (setting [5]), the AUC(0-inf) stood at 38100 ng·h/mL, the AUC(0-t) worked out at 26400 ng·h/mL, the peak level (Cmax) was 3060 ng/mL and the half-life is 918 min. In addition, in data set [1] (setting [5]), the time to peak (Tmax) amounted to 1 h. In data set [1] (setting [6]), the AUC(0-t) is 26000 ng·h/mL, the concentration peaked (Cmax) at 2970 ng/mL, the half-life was 744 min and the Tmax came to 1 h. In data set [2], the “IHC immunoreactivity staining in the right lung” value was “lowered in severity”.
